Patent publication US3975524A, “3-Piperazino-isoquinolines and salts thereof” (Boehringer Ingelheim GmbH, priority 1974, dated 1976)
Like-named read-outs stand apart in the source and are kept apart here.

Key:
platelet stickiness = assay: retention test according to Morris (inhibition of platelet stickiness on glass beads); assay type: cell-based; settings: human citrate-blood, 10 min at 37°C
Method: 1. The inhibiting effect upon the platelet stickiness was determined by means of the so-called retention test according to Morris [see E. Deutsch et al, 1. Internationales Symposium uber Stoffwechsel und Membranpermeabilitat von Erythrocyten und Thrombocyten, Vienna, Austria (1969); Georg Thieme Verlag, Stuttgart, Germany]. 1 ml of human citrate-blood is pipetted into each of a number of small test tubes, and the test compound is added to various final concentrations. The tubes are incubated for 10 minutes at 37°C. 1 gm of glass beads (glass beads for gas-chromatography) is added to half of the tubes. Finally, the closed tubes are attached to a vertical wheel and rotated for 1 minute. By this means good contact is obtained between the glass beads and the blood. The tubes are then allowed to stand at room temperature for another hour, after which time a satisfactory sedimentation of erythrocytes has taken place. 0.01 ml of the supernatant plasma is removed, diluted to 1:8,000 with celloscope solution, and the platelet count is read in the celloscope.

thrombocyte aggregation [1] = assay: inhibition of thrombocyte aggregation induced by collagen; assay type: cell-based, human; settings: platelet-rich plasma
Text: (§1) 2. The inhibiting action upon thrombocyte aggregation was ascertained by the method of Born and Cross, J. Physiol. 170, 397 (1964), in the platelet-rich plasma of healthy human test subjects, by photometrically ascertaining and registering the rate of decrease of the optical density after addition of (a) adenosine diphosphate (ADP). The angle of inclination of the density curve is a measure of the rate of aggregration (V max.). The point on the curve which corresponded to the greatest light-permeability was used for calculation of the optical density (o.D.).
(b) Aggregration with collagen
The procedure is the same as described under (a). To provoke aggregation commercial collagen was used, containing 1 mgm of collagen fibrils per 1 ml. To provoke maximum aggregation, about 0.01 ml of this collagen solution was added to 1 ml of platelet-rich plasma. Previously, the plasma was incubated at 37°C with varying quantities of test compound for 10 minutes each: […]

bleeding time = assay: prolonging effect upon the bleeding time, method of Duke; assay type: in vivo; settings: 10 mgm/kg per os, mice, vs untreated animals
Method: 3. The prolonging effect upon the bleeding time was ascertained by the method of Duke, J. Amer. Med. Assoc. 15, 1185 (1910). 10 mgm/kg of the test compound were given per os to non-anesthetized mice. After 1 or 3 hours, about 0.5 mm was cut off from the tail of each animal, and the exuded blood was carefully soaked up with filter paper at intervals of 30 seconds. The number of drops of blood so obtained was used as a measure for the bleeding time compared to untreated animals (5 animals/test).

thrombocyte aggregation [2] = assay: inhibition of thrombocyte aggregation induced by adenosine diphosphate (ADP), Born and Cross; assay type: cell-based; settings: 10 min, platelet-rich human plasma, 10 min at 37°C, read-out: ED50 (concentration which reduces the maximum light-permeability after addition of ADP by 50%)
Text: as §1
The ADP-doses were held to a minimum, but still sufficiently large to result in an irreversible aggregation. Prior to addition of ADP, each plasma sample was incubated for 10 minutes at 37°C with various amounts of the test compound. From the data thus obtained, the median effective amount of test compound (ED50), i.e. the concentration which reduces the maximum light-permeability in platelet-rich plasma after addition of ADP by 50%, was calculated.

[3] = acute toxicity in white mice after oral or intravenous administration; assay type: in vivo; settings: observation time 14 days; for LD50 at 336 h: mouse, in vivo; for animals died: 250 mgm/kg p.o.
Method: 4. The acute toxicities of the compounds were determined in white mice (observation time: 14 days) after oral or intravenous adminstration. The LD50 was calculated from the percentage of animals which died after different doses within the observation time [see Finney et al in Probit Analysis, third Edition, Cambridge (1971)].

[4] = po, read-out: Toxicity (p.o. bound)

c1ccc2c(N3CCSCC3)nc(N3CCNCC3)cc2c1 [A, 1-thiomorpholino-3-piperazino-isoquinoline]
Inhibition in % (platelet stickiness) (platelet stickiness; 3×10^^-5 mol/liter): 18% | % inhibition of O.D. (thrombocyte aggregation [1]; 10^^-4 mol/liter): 100% | % inhibition of Vmax (thrombocyte aggregation [1]; 10^^-4 mol/liter): 100% | % inhibition of O.D. (thrombocyte aggregation [1]; 10^^-5 mol/liter): 62% | % inhibition of Vmax (thrombocyte aggregation [1]; 10^^-5 mol/liter): 51% | % Prolongation of bleeding time (bleeding time; 1 hour after application): 90%

[O-][S+]1CCN(c2nc(N3CCNCC3)cc3ccccc23)CC1 [B, 1-(1-oxido-thiomorpholino)-3-piperazino-isoquinoline]
Inhibition in % (platelet stickiness) (platelet stickiness; 3×10^^-5 mol/liter): 33% | IC50 (thrombocyte aggregation [2]): 30 µM | % inhibition of O.D. (thrombocyte aggregation [1]; 3.10^^-5 mol/liter): 96% | % inhibition of Vmax (thrombocyte aggregation [1]; 3.10^^-5 mol/liter): 96% | % inhibition of O.D. (thrombocyte aggregation [1]; 10^^-5 mol/liter): 80% | % inhibition of Vmax (thrombocyte aggregation [1]; 10^^-5 mol/liter): 75% | % Prolongation of bleeding time (bleeding time; 1 hour after application): 83% | % Prolongation of bleeding time (bleeding time; 3 hours after application): 16% | LD50 at 336 h ([3]; iv, read-out: LD50): 123 mg/kg | LD50 at 336 h ([3]; po, read-out: LD50): 940 mg/kg

CN1CCN(c2cc3ccccc3c(N3CCOCC3)n2)CC1 [C, 1-morpholino-3-(N'-methyl-piperazino)-isoquinoline]
Inhibition in % (platelet stickiness) (platelet stickiness; 5×10^^-5 mol/liter): 50% | % Prolongation of bleeding time (bleeding time; 1 hour after application): 85% | animals died [3]: 2 out of 5 | LD50 at 336 h [3, 4]: > 250 mg/kg

[O-][S+]1CCN(c2nc(N3CCNCC3)cc3c(Cl)cccc23)CC1 [Compound E, 1-(1-oxido-thiomorpholino)-3-piperazino-5-chloro-isoquinoline]
Inhibition in % (platelet stickiness) (platelet stickiness; 10^^-4 mol/liter): 92% | % inhibition of O.D. (thrombocyte aggregation [1]; 10^^-5 mol/liter): 100% | % inhibition of Vmax (thrombocyte aggregation [1]; 10^^-5 mol/liter): 100% | % Prolongation of bleeding time (bleeding time; 1 hour after application): 146% | animals died [3]: 0 out of 5 | LD50 at 336 h [3, 4]: > 250 mg/kg

Cc1cccc2c(N3CC[S+]([O-])CC3)nc(N3CCNCC3)cc12 [D, 1-(1-oxido-thiomorpholino)-3-piperazino-5-methyl-isoquinoline]
Inhibition in % (platelet stickiness) (platelet stickiness; 10^^-4 mol/liter): 86% | % inhibition of O.D. (thrombocyte aggregation [1]; 3.10^^-5 mol/liter): 100% | % inhibition of Vmax (thrombocyte aggregation [1]; 3.10^^-5 mol/liter): 100% | % Prolongation of bleeding time (bleeding time; 1 hour after application): 78% | animals died [3]: 0 out of 5 | LD50 at 336 h [3, 4]: > 250 mg/kg

COc1cccc2c(N3CC[S+]([O-])CC3)nc(N3CCNCC3)cc12 [F, 1-(1-oxido-thiomorpholino)-3-piperazino-5-methoxy-isoquinoline]
Inhibition in % (platelet stickiness) (platelet stickiness; 10^^-4 mol/liter): 70% | % inhibition of O.D. (thrombocyte aggregation [1]; 10^^-5 mol/liter): 100% | % inhibition of Vmax (thrombocyte aggregation [1]; 10^^-5 mol/liter): 100% | % Prolongation of bleeding time (bleeding time; 1 hour after application): 117%
